Laboratory results from patent US20240228489A1, “POSITIVE ALLOSTERIC MODULATORS OF THE MUSCARINIC ACETYLCHOLINE RECEPTOR M1” (Vanderbilt University, priority 2021, published 2024).

Legend:
human mAChR M1 [1] = target: T1, human mAChR M1 (Homo sapiens, UniProt P11229); test: mAChR M1 cell-based functional assay (calcium mobilization), PAM mode: increase in the EC20 acetylcholine response
T1 sequence (P11229 1-460): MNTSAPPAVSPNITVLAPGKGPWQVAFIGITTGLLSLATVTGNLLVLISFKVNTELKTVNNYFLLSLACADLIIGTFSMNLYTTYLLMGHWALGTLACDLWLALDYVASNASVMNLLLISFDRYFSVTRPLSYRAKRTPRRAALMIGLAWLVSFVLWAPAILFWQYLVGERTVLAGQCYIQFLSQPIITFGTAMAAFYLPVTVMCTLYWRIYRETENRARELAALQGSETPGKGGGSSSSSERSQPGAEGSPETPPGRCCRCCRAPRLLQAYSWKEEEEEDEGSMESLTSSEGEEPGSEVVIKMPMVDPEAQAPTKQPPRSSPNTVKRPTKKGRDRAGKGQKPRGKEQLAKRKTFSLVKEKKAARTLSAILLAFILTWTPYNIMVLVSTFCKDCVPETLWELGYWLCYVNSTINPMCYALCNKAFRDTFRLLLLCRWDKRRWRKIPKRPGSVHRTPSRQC
Procedure, shortened: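 PAM readout is the concentration-dependent rise in the EC20 acetylcholine calcium signal, fitted to a four-parameter logistic (EC50, Emax). Compounds were preincubated from 4 s before ACh at 144 s (EC20) and 230 s (EC80). hM1-expressing CHO-K1 cells loaded with Fluo-4, FDSS ratio read.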

human mAChR M1 [2] = target: T1, human mAChR M1; test: mAChR M1 cell-based functional assay (calcium mobilization), agonist mode: compound alone, Emax relative to acetylcholine maximum; conditions: for Agonist Activity Human M1 EC50: human mAChR M1; for Emax: relative to the maximum for acetylcholine
Procedure, shortened: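 Agonist activity is the concentration-dependent rise in intracellular calcium (Fluo-4, 1 Hz read) after compound addition, measured before any acetylcholine was added, in stable hM1 CHO-K1 cells. Curves were 11-point, 1:3 dilutions fitted by four-parameter logistic. Emax is given as a fraction of maximal acetylcholine response.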

SMILES	EC50 (human mAChR M1 [1]) [µM]	Emax (human mAChR M1 [1]) [%]	Agonist Activity Human M1 EC50 (human mAChR M1 [2])	Emax (human mAChR M1 [2]) [%]
[2H]C1([2H])c2ncccc2C(=O)N1Cc1ccc(-c2ccc3c(cnn3C)c2)cc1 [Compound 237, 6-(4-(1-methyl-1H-indazol-5-yl)benzyl)-6,7-dihydro-5H-pyrrolo[3,4-b]pyridin-5-one-7,7-d2]	> 10	47	Inactive	2
[2H]C1([2H])c2ncccc2C(=O)N1Cc1ccc(-c2ccc3nn(C)cc3c2C)cc1 [Compound 238, 6-(4-(2,4-dimethyl-2H-indazol-5-yl)benzyl)-6,7-dihydro-5H-pyrrolo[3,4-b]pyridin-5-one-7,7-d2]	> 10	39	Inactive	2
[2H]C1([2H])c2ncccc2C(=O)N1Cc1ccc(-c2cccc3nncn23)cc1 [Compound 239, 6-(4-([1,2,4]triazolo[4,3-a]pyridin-5-yl)benzyl)-6,7-dihydro-5H-pyrrolo[3,4-b]pyridin-5-one-7,7-d2]	> 10	44	Inactive	3
[2H]c1nnc2cccc(-c3ccc(CN4C(=O)c5cccnc5C4([2H])[2H])cc3)n12 [Compound 240, 6-(4-([1,2,4]triazolo[4,3-a]pyridin-5-yl-3-d)benzyl)-6,7-dihydro-5H-pyrrolo[3,4-b]pyridin-5-one-7,7-d2]	> 10	27	Inactive	3
[2H]C1([2H])c2ncccc2C(=O)N1Cc1ccc(-c2cccc3ccnn23)cc1 [Compound 241, 6-(4-(pyrazolo[1,5-a]pyridin-7-yl)benzyl)-6,7-dihydro-5H-pyrrolo[3,4-b]pyridin-5-one-7,7-d2]	> 10	41	Inactive	3
[2H]C1([2H])c2ncccc2C(=O)N1Cc1ccc(-c2ccc3nn(C)cc3c2C)cc1F [Compound 242, 6-(4-(2,4-dimethyl-2H-indazol-5-yl)-2-fluorobenzyl)-6,7-dihydro-5H-pyrrolo[3,4-b]pyridin-5-one-7,7-d2]	> 10	43	Inactive	3
[2H]C1([2H])c2ncccc2C(=O)N1Cc1c(F)cc(-c2cccc3c2cnn3C(F)F)cc1F [Compound 243, 6-(4-(1-(difluoromethyl)-1H-indazol-4-yl)-2,6-difluorobenzyl)-6,7-dihydro-5H-pyrrolo[3,4-b]pyridin-5-one-7,7-d2]	> 10	34	Inactive	5
[2H]C1([2H])c2ncccc2C(=O)N1Cc1c(F)cc(-c2ccc(C(F)(F)F)c3c2cnn3C([2H])([2H])[2H])cc1F [Compound 244, 6-(2,6-difluoro-4-(1-(methyl-d3)-7-(trifluoromethyl)-1H-indazol-4-yl)benzyl)-6,7-dihydro-5H-pyrrolo[3,4-b]pyridin-5-one-7,7-d2]	> 10	34	Inactive	2
[2H]C1([2H])c2ncccc2C(=O)N1Cc1c(F)cc(-c2cc(F)c(Cl)c3nn(C)cc23)cc1F [Compound 245, 6-(4-(7-chloro-6-fluoro-2-methyl-2H-indazol-4-yl)-2,6-difluorobenzyl)-6,7-dihydro-5H-pyrrolo[3,4-b]pyridin-5-one-7,7-d2]	> 10	47	Inactive	1
[2H]C1([2H])c2ncccc2C(=O)N1Cc1c(F)cc(-c2cc(Cl)cc3c2cnn3C([2H])([2H])[2H])cc1F [Compound 246, 6-(4-(6-chloro-1-(methyl-d3)-1H-indazol-4-yl)-2,6-difluorobenzyl)-6,7-dihydro-5H-pyrrolo[3,4-b]pyridin-5-one-7,7-d2]	> 10	25	Inactive	2
[2H]C1([2H])c2ncccc2C(=O)N1Cc1c(F)cc(-c2cc(F)cc3c2cnn3C([2H])([2H])[2H])cc1F [Compound 247, 6-(2,6-difluoro-4-(6-fluoro-1-(methyl-d3)-1H-indazol-4-yl)benzyl)-6,7-dihydro-5H-pyrrolo[3,4-b]pyridin-5-one-7,7-d2]	> 10	29	Inactive	2
[2H]C1([2H])c2ncccc2C(=O)N1Cc1c(F)cc(-c2cc(F)c(Cl)c3nn(C([2H])([2H])[2H])cc23)cc1F [Compound 248, 6-(4-(7-chloro-6-fluoro-2-(methyl-d3)-2H-indazol-4-yl)-2,6-difluorobenzyl)-6,7-dihydro-5H-pyrrolo[3,4-b]pyridin-5-one-7,7-d2]	> 10	34	Inactive	2
[2H]C1([2H])c2ncccc2C(=O)N1Cc1c(F)cc(-c2cc(F)c(Cl)c3c2cnn3C([2H])([2H])[2H])cc1F [Compound 249, 6-(4-(7-chloro-6-fluoro-1-(methyl-d3)-1H-indazol-4-yl)-2,6-difluorobenzyl)-6,7-dihydro-5H-pyrrolo[3,4-b]pyridin-5-one-7,7-d2]	> 10	20	Inactive	14
[2H]C1([2H])c2ncccc2C(=O)N1Cc1c(F)cc(-c2ccc(OC(C)C)c3c2cnn3C([2H])([2H])[2H])cc1F [Compound 250, 6-(2,6-difluoro-4-(7-isopropoxy-1-(methyl-d3)-1H-indazol-4-yl)benzyl)-6,7-dihydro-5H-pyrrolo[3,4-b]pyridin-5-one-7,7-d2]	> 10	51	Inactive	3
[2H]C1([2H])c2ncccc2C(=O)N1Cc1c(F)cc(-c2ccc(OC(F)(F)F)c3c2cnn3C([2H])([2H])[2H])cc1F [Compound 251, 6-(2,6-difluoro-4-(1-(methyl-d3)-7-(trifluoromethoxy)-1H-indazol-4-yl)benzyl)-6,7-dihydro-5H-pyrrolo[3,4-b]pyridin-5-one-7,7-d2]	> 10	12	Inactive	2
[2H]C1([2H])c2ncccc2C(=O)N1Cc1c(F)cc(-c2cc(F)c(F)c3c2cnn3C([2H])([2H])[2H])cc1F [Compound 252, 6-(4-(6,7-difluoro-1-(methyl-d3)-1H-indazol-4-yl)-2,6-difluorobenzyl)-6,7-dihydro-5H-pyrrolo[3,4-b]pyridin-5-one-7,7-d2]	> 10	15	Inactive	2
[2H]C1([2H])c2ncccc2C(=O)N1Cc1c(F)cc(-c2cnc(OC)c3c2cnn3C)cc1F [Compound 253, 6-(2,6-difluoro-4-(7-methoxy-1-methyl-1H-pyrazolo[3,4-c]pyridin-4-yl)benzyl)-6,7-dihydro-5H-pyrrolo[3,4-b]pyridin-5-one-7,7-d2]	> 10	27	Inactive	2
